Measured values taken from publication PMC10790229 (Journal of medicinal chemistry, 2023).

Experiments:
[1] = target: hexameric HIV-1 CA NL4.3 protein (Human immunodeficiency virus type 1, UniProt P12493); experiment: SPR binding to disulfide-stabilized hexameric HIV-1 CA
in vitro [2] = settings: human, microsomes
HIV-2 ROD = experiment: Anti-HIV-2 activity in MT-4 cells; assay type: cell-based; settings: for EC50: Human immunodeficiency virus 2, MT4, read-out: EC50 ROD
[3] = target: monomeric HIV-1 CA NL4.3 protein (Human immunodeficiency virus type 1 group M subtype B, UniProt P12493); experiment: SPR binding to monomeric HIV-1 CA
[4] = Cytotoxicity in uninfected MT-4 cells; assay type: cell-based; settings: human
HIV-1 IIIB = experiment: Anti-HIV-1 activity in MT-4 cells; assay type: cell-based; settings: for EC50: Human immunodeficiency virus 1, IIIB, MT4, read-out: EC50 IIIB
HIV-1 [5] = settings: read-out: EC50 antiviral activity; MT-4 cells; cited from earlier work
in vitro [6] = assay type: in vitro ADME; settings: human, plasma
[7] = tested on: hexameric HIV-1 CA NL4.3 protein; experiment: SPR binding to disulfide-stabilized hexameric HIV-1 CA
[8] = target: reverse transcriptase (RT) (Human immunodeficiency virus type 1 group M subtype B, UniProt P04585); experiment: In vitro reverse transcriptase inhibition assay; assay type: biochemical, HIV-1; settings: 900 nM
[9] = tested on: p24 content of produced pseudoviruses; experiment: ELISA-based quantification of capsid; assay type: cell-based, HIV-1; settings: compound at 10× over EC50
HIV-1 CA-NC = HIV-1 CA-NC (Human immunodeficiency virus type 1 group M subtype B, UniProt P12493); experiment: FRET-based in vitro CA assembly assay; assay type: biochemical; settings: 50 μM compound
HIV-1 [10] = assay type: cell-based; settings: 1 μM compound; DMSO = 100
[11] = human
[12] = target: CPSF6 peptide binding to hexameric HIV-1 CA NL4.3 protein (Human immunodeficiency virus type 1, UniProt P12493); experiment: SPR-based CPSF6 peptide competition assay; settings: read-out: IC50 CPSF6 peptide competition, CA hexamer
[13] = in vivo, cited from earlier work
[14] = Metabolic stability in human liver microsomes

COc1ccc(N(C)C(=O)[C@H](Cc2ccccc2)NC(=O)Cc2c(C)[nH]c3ccccc23)cc1 [PF74, reference compound]
Residence Time Hexamer ([1]; CA hexamer): 0.463 min
CLint scaled at 1 h, 1 µM (in vitro [2]): 1900 mL/min/kg
SI ROD (CC50/EC50) (HIV-2 ROD; HIV-2 ROD, MT-4 cells): >77.64
EC50 (HIV-2 ROD): 3780 ± 380 nM
Residence Time Monomer ([3]; SPR, CA monomer): 0.011 min
CC50 [4]: > 294000 nM
SI IIIB (CC50/EC50) (HIV-1 IIIB; HIV-1 IIIB, MT-4 cells): >367.65
EC50 (HIV-1 [5]): 870 nM

COc1ccc(-n2c([C@H](Cc3cc(F)cc(F)c3)NC(=O)CN3CCN(S(=O)(=O)c4ccc(N)cc4)CC3=O)nc3ccccc3c2=O)cc1 [12a2, (S)-2-(4-((4-Aminophenyl)sulfonyl)-2-oxopiperazin-1-yl)-N-(2-(3,5-difluorophenyl)-1-(3-(4-methoxyphenyl)-4-oxo-3,4-dihydroquinazolin-2-yl)ethyl)acetamide]
remaining at 2 h (in vitro [6]): 110%
Ratio KD Monomer/KD Hexamer [7]: 1.490
fold increase in affinity toward the CA hexamer compared to 11L [1]: 2 fold
Residence Time Hexamer ([1]; CA hexamer): 0.321 min
koff Hexamer ([1]; CA hexamer): 0.052 ± 0.005 s⁻¹
Kd ([1]; read-out: KD Hexamer, CA hexamer): 561 ± 31 nM
RT activity compared to RT control [8]: about 80%
CLint scaled (in vitro [2]): 129 mL/min/kg
half-life (in vitro [2]): 9.7 min
microsomal CLint (in vitro [2]): 143 µL/min/mg
remaining at 1 h (in vitro [2]; % Remaining (NCF = 60 min)): 107%
remaining at 1 h (in vitro [2]; % Remaining (T = 60 min)): 1.1%
SI ROD (CC50/EC50) (HIV-2 ROD; HIV-2 ROD, MT-4 cells): >1736.11
fold improvement of anti-HIV-2 potency over PF74 (HIV-2 ROD; HIV-2 ROD, MT-4 cells): approximately 40 fold
EC50 (HIV-2 ROD): 100 ± 10 nM
p24 content of the produced virus [9]: did not change significantly
Kd [3]: 838 ± 170 nM
Residence Time Monomer ([3]; SPR, CA monomer): 0.203 min
koff Monomer ([3]; SPR, CA monomer): 0.082 ± 0.011 s⁻¹
CC50 [4]: > 178000 nM
fold improvement of anti-HIV-1 potency over 11L (HIV-1 IIIB; HIV-1 IIIB, MT-4 cells): 2.5 fold
fold improvement of anti-HIV-1 potency over PF74 (HIV-1 IIIB; HIV-1 IIIB, MT-4 cells): 7.3 fold
EC50 (HIV-1 IIIB): 110 ± 30 nM
Ratio IIIB(EC50)/ROD(EC50) (HIV-1 IIIB; MT-4 cells): 1.10
effect on CA assembly (HIV-1 CA-NC): enhance CA assembly
% Infection Early Stage (HIV-1 [10]): 0.092 ± 0.013%
% Infection Late Stage (HIV-1 [10]): 0.019 ± 0.002%
intrinsic CL in microsomes, CLint(mic) [11]: 143.4 mL/min/kg
IC50 [12]: 189 ± 89.8 nM

CC(C)(C#Cc1ccc(-c2ccc(Cl)c3c(NS(C)(=O)=O)nn(CC(F)(F)F)c23)c([C@H](Cc2cc(F)cc(F)c2)NC(=O)Cn2nc(C(F)(F)F)c3c2C(F)(F)[C@@H]2C[C@H]32)n1)S(C)(=O)=O [LEN, Lenacapavir]
oral half-life T1/2 ([13]; po): 240 to 288 h
subcutaneous half-life T1/2 ([13]; sc): 8–12 weeks

C[C@]12CC[C@H]3[C@@H](CCC4=CC(=O)CC[C@@]43C)[C@@H]1CC[C@@H]2O [Testosterone, testosterone]
remaining at 1 h, 1 µM [14]: 95.8%

COc1ccc(N(C)C(=O)[C@H](Cc2ccccc2)NC(=O)CN2CCN(S(=O)(=O)c3ccc(N)cc3)CC2=O)cc1 [11L, reference compound]
CC50 [4]: 198000 ± 6850 nM
EC50 (HIV-1 IIIB): 280 ± 90 nM
